Like-named read-outs stand apart in the source and are kept apart here.
Target: T1, human α7 nAChR stably expressed in a HEK cell line (with human RIC-3) (Homo sapiens, UniProt P36544)
T1 construct: PrecisION hnAChR α7/RIC-3
Assay: Automated patch-clamp electrophysiology functional assay (Assay A), IonFlux HT, whole-cell population patch
Assay type: cell-based
In short: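 Whole-cell population patch clamp (IonFlux HT) used HEK cells stably co-expressing human α7 and RIC-3, held at −60 mV at room temperature. Compounds were applied alone (agonism) or with 40 μM acetylcholine (potentiation), three ascending concentrations per recording. Currents were quantified relative to a 40 μM acetylcholine reference response, giving EC50.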

[1] = automated patch-clamp electrophysiology functional assay (Assay A), potency class by EC50, read-out: α7 nAChR Potency
[2] = electrophysiology EC50, HEK cells expressing human α7/RIC-3, 40 μM acetylcholine, holding potential −60 mV, room temperature, read-out: α7 nAChR EC50

T1 sequence (P36544 23-502): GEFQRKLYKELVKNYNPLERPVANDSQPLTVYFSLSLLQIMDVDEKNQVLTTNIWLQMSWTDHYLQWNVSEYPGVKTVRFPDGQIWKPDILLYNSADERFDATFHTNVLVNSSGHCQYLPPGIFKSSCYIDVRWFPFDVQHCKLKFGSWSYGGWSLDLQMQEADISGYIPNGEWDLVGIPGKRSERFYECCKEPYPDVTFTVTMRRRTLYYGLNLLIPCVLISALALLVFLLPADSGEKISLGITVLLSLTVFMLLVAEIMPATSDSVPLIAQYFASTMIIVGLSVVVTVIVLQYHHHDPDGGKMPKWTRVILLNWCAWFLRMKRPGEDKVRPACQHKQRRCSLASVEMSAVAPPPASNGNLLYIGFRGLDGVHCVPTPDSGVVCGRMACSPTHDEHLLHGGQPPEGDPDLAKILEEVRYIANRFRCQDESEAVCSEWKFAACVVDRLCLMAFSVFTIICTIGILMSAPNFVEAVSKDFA

| EC50 [1] [nM] | EC50 [2] [nM] | Structure (SMILES) |
| --- | --- | --- |
| 500 to 5000 |  | CC1(C)[C@@H](c2ccc(S(N)(=O)=O)cc2)[C@@H]1c1noc(-c2ccc(OCCF)nc2)n1 [Example I14] |
| 500 to 5000 |  | CC1(C)[C@@H](c2ccc(S(N)(=O)=O)cc2)[C@@H]1c1nnc(-c2cccc(C(F)(F)F)c2)o1 [Example G2] |
| 500 to 5000 |  | CC1(C)[C@H](c2ccc(S(N)(=O)=O)cc2)[C@H]1c1nc(-c2ccccc2C(F)(F)F)no1 [Example A13] |
| 5000 to 50000 |  | NS(=O)(=O)c1ccc([C@H]2C[C@@H]2c2nc(-c3ccc(F)cc3F)no2)cc1 [Example A8] |
| 500 to 5000 |  | CC1(C)[C@@H](c2ccc(S(N)(=O)=O)cc2)[C@@H]1c1noc(-c2cccnc2C(F)(F)F)n1 [Example I21] |
| 100 to 500 |  | Cc1ccccc1-c1noc([C@@H]2C[C@H]2c2ccc(S(N)(=O)=O)cc2)n1 [Example C17] |
| 500 to 5000 | 2400 | CC1(C)[C@@H](c2ccc(S(N)(=O)=O)cc2)[C@@H]1c1noc(-c2cc(N3CCOC3=O)ccc2F)n1 [Example H7] |
| 500 to 5000 |  | CC1(C)[C@H](c2ccc(S(N)(=O)=O)cc2)[C@H]1c1nc(-c2cc(F)ccc2F)co1 [Example J3] |
| 100 to 500 |  | CC1(C)[C@@H](c2ccc(S(N)(=O)=O)cc2)[C@@H]1c1noc(Cc2ccc(F)cc2F)n1 [Example I1] |
| 100 to 500 |  | NS(=O)(=O)c1ccc([C@@H]2C[C@H]2c2noc(C3CCCCC3)n2)cc1 [Example I34] |
| 500 to 5000 | 1000 | CC1(C)[C@H](c2ccc(S(N)(=O)=O)cc2)[C@H]1c1nnc(-c2ccccc2)[nH]1 [Example F5] |
| 100 to 500 | 410 | CC(C)(C)c1noc([C@H]2[C@H](c3ccc(S(N)(=O)=O)cc3)C2(C)C)n1 [Example D10] |
| 100 to 500 | 460 | NS(=O)(=O)c1ccc([C@@H]2C[C@H]2c2cnc(C3CCCCC3)o2)cc1 [Example 28, 4-[(1R,2R)-2-(2-Cyclohexyl-1,3-oxazol-5-yl)cyclopropyl]benzenesulfonamide] |
| 500 to 5000 | 920 | CC1(C)[C@@H](c2ccc(S(N)(=O)=O)cc2)[C@@H]1c1nnc(C2CCCC2)s1 [Example G14] |
| 100 to 500 |  | NS(=O)(=O)c1ccc(C2C(c3nc(C4CCCC4)no3)C2(Cl)Cl)cc1 (racemic) [Example M5] |
| 500 to 5000 | 510 | Cc1ccc(-c2noc([C@@H]3C[C@H]3c3ccc(S(N)(=O)=O)cc3)n2)cc1 [Example C19] |
| 500 to 5000 | 730 | CC1(C)[C@H](c2ccc(S(N)(=O)=O)cc2)[C@H]1c1nc(-c2ccc(F)cc2F)co1 [Example J2] |
| 500 to 5000 |  | CC1(C)[C@H](c2ccc(S(N)(=O)=O)cc2)[C@H]1c1nnc(-c2cc(F)ccc2C(F)(F)F)o1 [Example F2] |
| 500 to 5000 | 1800 | CC1(C)[C@@H](c2ccc(S(N)(=O)=O)cc2)[C@@H]1c1noc(C2CCN(C3CC3)CC2)n1 [Example I9] |
| 500 to 5000 |  | CC1(C)[C@@H](c2ccc(S(N)(=O)=O)cc2)[C@@H]1c1cn(-c2ccccc2)nn1 [Example L7] |
| 500 to 5000 | 810 | NS(=O)(=O)c1ccc([C@@H]2C[C@H]2c2nc(Cc3ccc(F)cc3F)no2)cc1 [Example D26] |

| EC50 [1] [nM] | EC50 [2] [nM] | Structure (SMILES) |
| --- | --- | --- |
| 5000 to 50000 | 7300 | NS(=O)(=O)c1ccc([C@H]2C[C@@H]2c2nc(-c3ccccc3)no2)cc1 [Example A5] |
| 500 to 5000 |  | CC1(C)[C@H](c2ccc(S(N)(=O)=O)cc2)[C@H]1c1nc(C2CC(F)(F)C2)no1 [Example B8] |
| 500 to 5000 |  | CC1(C)[C@H](c2ccc(S(N)(=O)=O)cc2)[C@H]1c1cnn(C2CCCC2)c1 [Example L8] |
| 500 to 5000 |  | CC1(C)[C@@H](c2ccc(S(N)(=O)=O)cc2)[C@@H]1c1nnc(C2CC2)s1 [Example G15] |
| 500 to 5000 |  | NS(=O)(=O)c1ccc([C@@H]2C[C@H]2c2nc(-c3cnccc3C(F)(F)F)no2)cc1 [Example D22] |
| 500 to 5000 | 4800 | NS(=O)(=O)c1ccc([C@H]2C[C@@H]2c2cnc(-c3ccccc3)o2)cc1 [Example L2] |
| 500 to 5000 |  | CC1(C)[C@@H](c2ccc(S(N)(=O)=O)cc2)[C@@H]1c1ncc(C2CCCC2)o1 [Example K14] |
| 100 to 500 | 420 | CC1(C)[C@H](c2ccc(S(N)(=O)=O)cc2)[C@H]1c1nnc(-c2ccccc2)s1 [Example F4] |
| 100 to 500 |  | CC1(C)[C@@H](c2ccc(S(N)(=O)=O)cc2)[C@@H]1c1noc(C2CCCCC23CC3)n1 (stereo partly shown) [Example I27] |
| 100 to 500 |  | NS(=O)(=O)c1ccc([C@@H]2C[C@H]2c2nsc(C3CCCCC3)n2)cc1 [Example L11] |
| 500 to 5000 | 1300 | CC1(C)[C@H](c2ccc(S(N)(=O)=O)cc2)[C@H]1c1nc(-c2ccc(F)cc2F)no1 [Example A7] |
| 100 to 500 |  | CC1(C)[C@@H](c2ccc(S(N)(=O)=O)cc2)[C@@H]1c1nc(-c2ccccc2F)co1 [Example K1] |
| 100 to 500 |  | CC1(C)[C@@H](c2ccc(S(N)(=O)=O)cc2)[C@@H]1c1nc(C2CC2)no1 [Example D9] |
| 100 to 500 | 120 | NS(=O)(=O)c1ccc([C@@H]2C[C@H]2c2nc(-c3ccccc3)no2)cc1 [Example C5] |
| 5000 to 50000 |  | COc1ccc(Cl)cc1-c1noc([C@H]2[C@H](c3ccc(S(N)(=O)=O)cc3)C2(C)C)n1 [Example C1] |
| 500 to 5000 | 1300 | Cc1ncccc1-c1noc([C@@H]2C[C@H]2c2ccc(S(N)(=O)=O)cc2)n1 [Example D16] |
| 100 to 500 |  | NS(=O)(=O)c1ccc([C@@H]2C[C@H]2c2nc(C3CCCC3)co2)cc1 [Example K18] |
| 5000 to 50000 | 6800 | CC1(C)[C@@H](c2ccc(S(N)(=O)=O)cc2)[C@@H]1c1noc(C2CCC(O)CC2)n1 (stereo partly shown) [Example I29] |
| 100 to 500 | 160 | NS(=O)(=O)c1ccc([C@H]2[C@H](c3nc(C4CCCCC4)cs3)C2(F)F)cc1 [Example K19] |
| 500 to 5000 | 910 | CC(C)c1noc([C@@H]2[C@@H](c3ccc(S(N)(=O)=O)cc3)C2(F)F)n1 [Example 7, 4-{(1S,3S)-2,2-Difluoro-3-[3-(propan-2-yl)-1,2,4-oxadiazol-5-yl]cyclopropyl}benzenesulfonamide] |
| 500 to 5000 | 620 | CC(C)(C)c1coc([C@H]2[C@H](c3ccc(S(N)(=O)=O)cc3)C2(C)C)n1 [Example K7] |

| EC50 [1] [nM] | EC50 [2] [nM] | Structure (SMILES) |
| --- | --- | --- |
| ≤ 100 | 64 | CC1(C)[C@@H](c2ccc(S(N)(=O)=O)cc2)[C@@H]1c1noc(C2CCCC2)n1 [Example I26] |
| 500 to 5000 | 4800 | CC(C)Oc1ccc(Cl)cc1-c1noc([C@@H]2[C@@H](c3ccc(S(N)(=O)=O)cc3)C2(C)C)n1 [Example A4] |
| 500 to 5000 |  | Cc1ncccc1-c1noc([C@H]2[C@H](c3ccc(S(N)(=O)=O)cc3)C2(C)C)n1 [Example D15] |
| 500 to 5000 | 4400 | CC1(C)C(c2ccc(S(N)(=O)=O)cc2)C1c1noc(C2CC3CN(C4CCCC4)C(=O)C3C2)n1 (stereo not shown) [Example I24] |
| 500 to 5000 | 1100 | CC1(C)[C@H](c2ccc(S(N)(=O)=O)cc2)[C@H]1c1nc(-c2cccc(F)c2)no1 [Example A10] |
| 5000 to 50000 |  | NS(=O)(=O)c1ccc([C@H]2C[C@@H]2c2nc(-c3cncc(F)c3)no2)cc1 [Example B5] |
| 500 to 5000 |  | NS(=O)(=O)c1ccc([C@@H]2C[C@H]2c2nc(-c3cnccc3C(F)(F)F)no2)cc1 [Example D25] |
| 500 to 5000 |  | CC1(C)[C@H](c2ccc(S(N)(=O)=O)cc2)[C@H]1c1nc(-c2cncc(F)c2)no1 [Example B2] |
| 100 to 500 | 220 | CC1(C)[C@H](c2ccc(S(N)(=O)=O)cc2)[C@H]1c1noc(-c2cccc(F)c2)n1 [Example L18] |
| 500 to 5000 | 740 | NS(=O)(=O)c1ccc([C@@H]2[C@@H](c3nsc(-c4ccccc4)n3)C2(F)F)cc1 [Example L13] |
| 500 to 5000 | 2300 | CC1(C)[C@@H](c2ccc(S(N)(=O)=O)cc2)[C@@H]1c1nc(-c2cncc(C(F)(F)F)c2)no1 [Example D17] |
| 100 to 500 | 260 | CC1(C)[C@@H](c2ccc(S(N)(=O)=O)cc2)[C@@H]1c1noc(-c2ccccc2)n1 [Example H1] |
| 500 to 5000 | 630 | CC1(C)[C@@H](c2ccc(S(N)(=O)=O)cc2)[C@@H]1c1nnc(C2CCCC2)o1 [Example G10] |
| 500 to 5000 | 1200 | CC1(C)[C@H](c2ccc(S(N)(=O)=O)cc2)[C@H]1c1nc(-c2ccccc2F)co1 [Example J1] |
| 100 to 500 | 370 | CC1(C)[C@@H](c2ccc(S(N)(=O)=O)cc2)[C@@H]1c1csc(C2CCCC2)n1 [Example L15] |
| 500 to 5000 | 1800 | CC1(C)[C@@H](c2ccc(S(N)(=O)=O)cc2)[C@@H]1c1nnc(-c2ccccc2)s1 [Example G7] |
| 500 to 5000 |  | NS(=O)(=O)c1ccc([C@@H]2C[C@H]2c2nc(-c3cccc(Br)c3)no2)cc1 [Example C10] |
| 500 to 5000 |  | COc1ccc(Cl)cc1-c1noc(C2C(c3ccc(S(N)(=O)=O)cc3)C2(F)F)n1 (stereo not shown) [Example E2] |
| 500 to 5000 | 660 | CC1(C)[C@H](c2ccc(S(N)(=O)=O)cc2)[C@H]1c1nc(C2CCCCC2)no1 [Example 20, 4-((1R,3R)-3-(3-Cyclohexyl-1,2,4-oxadiazol-5-yl)-2,2-dimethylcyclopropyl)benzenesulfonamide] |
| ≤ 100 | 96 | CC1(C)[C@@H](c2ccc(S(N)(=O)=O)cc2)[C@@H]1c1noc(C2CCc3cc(F)ccc32)n1 (stereo partly shown) [Example I3] |
| 500 to 5000 |  | CC1(C)[C@H](c2ccc(S(N)(=O)=O)cc2)[C@H]1c1nc(-c2ccccc2)no1 [Example A3] |

| Structure (SMILES) | EC50 [1] [nM] | EC50 [2] [nM] |
| --- | --- | --- |
| NS(=O)(=O)c1ccc([C@@H]2[C@@H](c3nsc(N4CCCCC4)n3)C2(F)F)cc1 [Example L12] | 100 to 500 |  |

Source: patent publication US9840481B2, “Allosteric modulators of nicotinic acetylcholine receptors” (MERCK SHARP & DOHME CORP., priority 2016, dated 2017)
